# Calls of active or inactive are those of the source. The calls are words filed in the database; no cut-off is given here.
# Assays:
# Caenorhabditis elegans [1] = assay: Inhibition of Gq-alpha-coupled PLC pathway in radioactive-induced Caenorhabditis elegans N2 assessed as down regulation of egl-8 mRNA expression preincubated for 24 hrs followed by gamma-radiation treatment and measured after 24 hrs qRT-PCR analysis; conditions: time 48.0 hrs
# Caenorhabditis elegans [2] = assay: Activation of CREB in radioactive-induced Caenorhabditis elegans YT17 harboring crh-1(tz2) mutant assessed as reduction radiation-induced damage preincubated for 24 hrs followed by gamma-radiation treatment and measured after 24 hrs; conditions: time 48.0 hrs
# Caenorhabditis elegans [3] = assay: Protective activity against radioactive-induced Caenorhabditis elegans N2 assessed as body bends preincubated for 24 hrs followed by gamma-radiation treatment and measured after 24 hrs; type: functional, organism-based; conditions: time 48.0 hrs
# Caenorhabditis elegans [4] = assay: Inhibition of cGMP signaling pathway in radioactive-induced Caenorhabditis elegans N2 assessed as down regulation of tax-2 mRNA expression preincubated for 24 hrs followed by gamma-radiation treatment and measured after 24 hrs qRT-PCR analysis; conditions: time 48.0 hrs
# Caenorhabditis elegans [5] = assay: Protective activity against Butanone-induced Caenorhabditis elegans N2 assessed as chemotaxis index incubated for 1 hr; type: functional, organism-based
# Caenorhabditis elegans [6] = assay: Memory enhancement effect in radioactive-induced Caenorhabditis elegans harboring RNAi podr-1::unc-31 mutant assessed as memory index preincubated for 24 hrs followed by gamma-radiation treatment and measured after 24 hrs; type: functional, organism-based; conditions: time 48.0 hrs
# Caenorhabditis elegans [7] = assay: Inhibition of Gs-apha-coupled PKA pathway in radioactive-induced Caenorhabditis elegans N2 assessed as down regulation of kin-2 mRNA expression preincubated for 24 hrs followed by gamma-radiation treatment and measured after 24 hrs qRT-PCR analysis; conditions: time 48.0 hrs
# Caenorhabditis elegans [8] = assay: Memory enhancement effect in radioactive-induced Caenorhabditis elegans RB1341 harboring […] mutant assessed as memory index preincubated for 24 hrs followed by gamma-radiation treatment and measured after 24 hrs; type: functional, organism-based; conditions: time 48.0 hrs
# Caenorhabditis elegans [9] = assay: Inhibition of neuropeptide pathway in radioactive-induced Caenorhabditis elegans N2 assessed as down regulation of nlp-1 mRNA expression preincubated for 24 hrs followed by gamma-radiation treatment and measured after 24 hrs qRT-PCR analysis; conditions: time 48.0 hrs
# Caenorhabditis elegans [10] = assay: Inhibition of Gq-alpha-coupled PLC pathway in radioactive-induced Caenorhabditis elegans N2 assessed as up regulation of goa-1 mRNA expression preincubated for 24 hrs followed by gamma-radiation treatment and measured after 24 hrs qRT-PCR analysis; conditions: time 48.0 hrs
# Caenorhabditis elegans [11] = assay: Memory enhancement effect in radioactive-induced Caenorhabditis elegans assessed as increase in cAMP level preincubated for 24 hrs followed by gamma-radiation treatment and measured after 24 hrs; type: functional, organism-based; conditions: time 48.0 hrs
# Caenorhabditis elegans [12] = assay: Memory enhancement effect in Caenorhabditis elegans N2 assessed as increase in long-term memory index at 0.1 mg/ml preincubated for 24 hrs followed by gamma-radiation treatment and measured after 24 hrs; type: functional, organism-based; conditions: time 48.0 hrs
# Caenorhabditis elegans [13] = assay: Inhibition of cGMP signaling pathway in radioactive-induced Caenorhabditis elegans N2 assessed as down regulation of tax-4 mRNA expression preincubated for 24 hrs followed by gamma-radiation treatment and measured after 24 hrs qRT-PCR analysis; conditions: time 48.0 hrs
# Caenorhabditis elegans [14] = assay: Memory enhancement effect in radioactive-induced Caenorhabditis elegans MT1434 harboring egl-30(n686) mutant assessed as memory index preincubated for 24 hrs followed by gamma-radiation treatment and measured after 24 hrs; type: functional, organism-based; conditions: time 48.0 hrs
# Caenorhabditis elegans [15] = assay: Activation of CREB in radioactive-induced Caenorhabditis elegans MY36 harboring [crh-1(tz2); Pmbr-1-mcherry::crh-1(mtIs18)] mutant assessed as increase in long-term memory preincubated for 24 hrs followed by gamma-radiation treatment and measured after 24 hrs; conditions: filed as activator, time 48.0 hrs
# Caenorhabditis elegans [16] = assay: Inhibition of Gs-apha-coupled PKA pathway in radioactive-induced Caenorhabditis elegans N2 assessed as down regulation of gsa-1 mRNA expression preincubated for 24 hrs followed by gamma-radiation treatment and measured after 24 hrs qRT-PCR analysis; conditions: time 48.0 hrs
# Caenorhabditis elegans [17] = assay: Inhibition of Gq-alpha-coupled PLC pathway in radioactive-induced Caenorhabditis elegans N2 assessed as down regulation of egl-30 mRNA expression preincubated for 24 hrs followed by gamma-radiation treatment and measured after 24 hrs qRT-PCR analysis; conditions: time 48.0 hrs
# Caenorhabditis elegans [18] = assay: Inhibition of cGMP signaling pathway in radioactive-induced Caenorhabditis elegans N2 assessed as down regulation of odr-1 mRNA expression preincubated for 24 hrs followed by gamma-radiation treatment and measured after 24 hrs qRT-PCR analysis; conditions: time 48.0 hrs
# Caenorhabditis elegans [19] = assay: Activation of CREB in radioactive-induced Caenorhabditis elegans YT17 harboring crh-1(tz2) mutant assessed as increase in long-term memory preincubated for 24 hrs followed by gamma-radiation treatment and measured after 24 hrs; conditions: time 48.0 hrs
# Caenorhabditis elegans [20] = assay: Inhibition of neuropeptide pathway in radioactive-induced Caenorhabditis elegans N2 assessed as down regulation of npr-2 mRNA expression preincubated for 24 hrs followed by gamma-radiation treatment and measured after 24 hrs qRT-PCR analysis; conditions: time 48.0 hrs
# Caenorhabditis elegans [21] = assay: Inhibition of neuropeptide pathway in radioactive-induced Caenorhabditis elegans N2 assessed as down regulation of nlp-5 mRNA expression preincubated for 24 hrs followed by gamma-radiation treatment and measured after 24 hrs qRT-PCR analysis; conditions: time 48.0 hrs
# Caenorhabditis elegans [22] = assay: Memory enhancement effect in radioactive-induced Caenorhabditis elegans MY66 harboring egl-30(n686);Podr-1-mcherry::egl-30(mtIs35)] mutant assessed as memory index preincubated for 24 hrs followed by gamma-radiation treatment and measured after 24 hrs; type: functional, organism-based; conditions: time 48.0 hrs
# Caenorhabditis elegans [23] = assay: Inhibition of neuropeptide signaling pathway in radioactive-induced Caenorhabditis elegans N2 assessed as down regulation of npr-11 mRNA expression preincubated for 24 hrs followed by gamma-radiation treatment and measured after 24 hrs qRT-PCR analysis; conditions: time 48.0 hrs
# Caenorhabditis elegans [24] = assay: Inhibition of neuropeptide pathway in radioactive-induced Caenorhabditis elegans N2 assessed as down regulation of nlp-23 mRNA expression preincubated for 24 hrs followed by gamma-radiation treatment and measured after 24 hrs qRT-PCR analysis; conditions: time 48.0 hrs
# Caenorhabditis elegans [25] = assay: Inhibition of cGMP signaling pathway in radioactive-induced Caenorhabditis elegans N2 assessed as down regulation of daf-11 mRNA expression preincubated for 24 hrs followed by gamma-radiation treatment and measured after 24 hrs qRT-PCR analysis; conditions: time 48.0 hrs
# Caenorhabditis elegans [26] = assay: Protective activity against radioactive-induced Caenorhabditis elegans N2 at 0.05 to 0.2 mg/ml preincubated for 24 hrs followed by gamma-radiation treatment and measured after 24 hrs; type: functional, organism-based; conditions: dose mg/ml 0.05-0.2, time 48.0 hrs
# Caenorhabditis elegans [27] = assay: Memory enhancement effect in radioactive-induced Caenorhabditis elegans harboring RNAi egl8;egl-30(n686)ls(Podr-1-mcherry::egl-30) mutant assessed as memory index preincubated for 24 hrs followed by gamma-radiation treatment and measured after 24 hrs; type: functional, organism-based; conditions: time 48.0 hrs
# Caenorhabditis elegans [28] = assay: Protective activity against radioactive-induced Caenorhabditis elegans N2 assessed as head thrashes preincubated for 24 hrs followed by gamma-radiation treatment and measured after 24 hrs; type: functional, organism-based; conditions: time 48.0 hrs
compound,measurement,setting,value
COc1cc([C@H]2OC[C@@H]3[C@@H]2CO[C@H]3c2cc(OC)c(O[C@@H]3O[C@H](CO)[C@@H](O)[C@H](O)[C@H]3O)c(OC)c2)cc(OC)c1O[C@@H]1O[C@H](CO)[C@@H](O)[C@H](O)[C@H]1O,inhibition,Caenorhabditis elegans [1],Active
same,Activity,Caenorhabditis elegans [2],inactive
same,Activity,Caenorhabditis elegans [3],inactive
same,inhibition,Caenorhabditis elegans [4],inactive
same,Activity,Caenorhabditis elegans [5],inactive
same,Activity,Caenorhabditis elegans [6],inactive
same,inhibition,Caenorhabditis elegans [7],Active
same,Activity,Caenorhabditis elegans [8],Active
same,inhibition,Caenorhabditis elegans [9],Active
same,inhibition,Caenorhabditis elegans [10],Active
same,Activity,Caenorhabditis elegans [11],Active
same,Activity,Caenorhabditis elegans [12],Active
same,inhibition,Caenorhabditis elegans [13],inactive
same,Activity,Caenorhabditis elegans [14],inactive
same,Activity,Caenorhabditis elegans [15],Active
same,inhibition,Caenorhabditis elegans [16],Active
same,inhibition,Caenorhabditis elegans [17],Active
same,inhibition,Caenorhabditis elegans [18],inactive
same,Activity,Caenorhabditis elegans [19],inactive
same,inhibition,Caenorhabditis elegans [20],Active
same,inhibition,Caenorhabditis elegans [21],Active
same,Activity,Caenorhabditis elegans [22],Active
same,inhibition,Caenorhabditis elegans [23],Active
same,inhibition,Caenorhabditis elegans [24],Active
same,inhibition,Caenorhabditis elegans [25],inactive
same,Activity,Caenorhabditis elegans [26],inactive
same,Activity,Caenorhabditis elegans [27],inactive
same,Activity,Caenorhabditis elegans [28],inactive
